Common to all, as to assay type: in vivo
Data set [1] concerns large crabgrass (Digitaria sanguinalis). The data set can be described thus: Pre-emergence application, herbicidal effect on large crabgrass (Table 1). The note with it: 20 days after application, score 0-5. The arrangement: key: 0: not damaged; 5: completely killed. The method, boiled down: (§1)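 Soil treatment after sowing, pre-emergence; wettable powder formulations diluted with water. Greenhouse, 20 d. Score 0 = no damage, 5 = complete kill.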

Data set [2] concerns barnyard grass (Echinochloa crus-galli). The data set can be described thus: Water application, herbicidal effect on barnyard grass (Table 2). The note with it: 25 days, score 0-5. On the set-up: key: 0: not damaged; 5: completely killed. Put shortly:
(§2)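 Paddy-soil pots flooded to paddy conditions; rice transplanted at 3-leaf stage, barnyard grass sown, broad-leaved weeds germinating spontaneously. Test compounds applied as wettable powder to soil under flooded water. Herbicidal effect and rice phytotoxicity scored 0–5 at 25 days after application.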

Data set [3] relates to carmine mite (Tetranychus telavius). Briefly: Lethal effect on carmine mite, leaf dipping (Table 3). The note with it: foliar, 48 h. The method, boiled down:
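Kidney bean leaves (2-leaf stage) infested with adult mites dipped 1 min in aqueous wettable-powder solutions. Mortality counted microscopically after 48 h; LC50 derived from mortality.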

In data set [4] the test system is common lambsquarter (Chenopodium album). The data set can be described thus: Pre-emergence application, herbicidal effect on common lambsquarter (Table 1). On the set-up: key: 0: not damaged; 5: completely killed. The note with it: 20 days after application, score 0-5. The method, boiled down: as §1
The subject of data set [5] is barnyard grass (Echinochloa crus-galli). Briefly: Pre-emergence application, herbicidal effect on barnyard grass (Table 1). On the set-up: key: 0: not damaged; 5: completely killed. The note with it: 20 days after application, score 0-5. Put shortly: as §1
Data set [6] concerns tobacco cut worm (Spondoptera litura). Briefly: Lethal effect on tobacco cut worm (Table 5). The note with it: tobacco cutworm, larvae on chinese cabbage leaves, 48 h. Here is the method: The present compounds of an emulsifiable concentrate type were applied to leaves of chinese cabbage in the form of an 1000 fold dilute solution. After air-drying, third to fourth instar larvae of tobacco cut worm were released and after 48 hours the death and alive were observed.

The test system of data set [7] is broad-leaved weeds, e.g., monochoria, false pimpernel and toothcup. Briefly: Water application, herbicidal effect on broad-leaved weeds (Table 2). On the set-up: key: 0: not damaged; 5: completely killed. The note with it: 25 days, score 0-5. Put shortly: as §2
The subject of data set [8] is tobacco cut worm (Spodoptera litura). Briefly: Field test, tobacco cut worm on cabbage (Table 8). The note with it: 3% dust, 5 kg./10 a., after 7 days, on 20 cabbages. The source says: (§3) A 3% dust of each compound of the present invention was applied, in a proportion of 5 kg./10 a., to the field of cabbage where a large number of tobacco cut worm and diamond-back moth were generated, After 7 days, 20 cabbages were pulled out and the number of insects thereon were checked.

In another data set the test system is rice. Briefly: Water application, phytotoxicity on rice (Table 2). The note with it: 25 days, score 0-5. The arrangement: key: 0: no effect; 1: very slightly affected; 2: slightly affected; 3: moderately affected; 4: considerably affected; 5: completely killed. The method, boiled down: as §2
Data set [9] concerns redroot pigweed (Amaranthus retroflexus). The data set can be described thus: Pre-emergence application, herbicidal effect on redroot pigweed (Table 1). The arrangement: key: 0: not damaged; 5: completely killed. The note with it: 20 days after application, score 0-5. Put shortly:
as §1

The test system of data set [10] is common purslane (Portulaca oleracea). The data set can be described thus: Pre-emergence application, herbicidal effect on common purslane (Table 1). The arrangement: key: 0: not damaged; 5: completely killed. The note with it: 20 days after application, score 0-5. The method, boiled down: as §1
The test system of another data set is radish. Briefly: Pre-emergence application, herbicidal effect on radish (Table 1). The arrangement: key: 0: not damaged; 5: completely killed. The note with it: 20 days after application, score 0-5. The method, boiled down: as §1
Data set [11] relates to diamond-back moth (Plutella maculipennis). The data set can be described thus: Field test, diamond-back moth on cabbage (Table 8). The note with it: 3% dust, 5 kg./10 a., after 7 days, on 20 cabbages.
Text: as §3

Another data set concerns nematode. Briefly: Effect on nematode (Table 7). On the set-up: tested at 500 ppm. The note with it: 500 p.p.m., 24 hours. Here is the method:
0.5 ml. of a nematode-containing aqueous solution separated from food according to Baermann's method was placed in a test tube with ground stopper containing 0.5 ml. of an aqueous dilute solution of each emulsifiable concentrates of the present compounds. The concentration of the active ingredient in the mixture was adjusted to 500 p.p.m. After 24 hours, the death and alive were observed microscopically to calculate the mortality.

For data set [12], the system named is carmine mite (Tetranychus telarius). Briefly: Lethal effect on carmine mite, degree of damage on kidney beans (Table 4). The arrangement: key: -: damage is hardly increased.; +: damage is slightly increased.; ++: damage is fairly increased.; +++: damage is heavily increased. The note with it: 25% wettable powder, 200 fold dilute solution, another week after application. The source says: About 50 carmine mite adults were made parasitic on leaves of potted kidney beans at a 2-leaves stage which had elapsed 10 days after swing. After a week, the present compounds of a 25% wettable powder type were each applied in the form of a 200 fold dilute solution.

SMILES strings stand for the structures. In brackets after ≈: the same amount, converted by molar mass.

For orientation: LC50 means the concentration lethal to half of the exposed cells or organisms.

With `CCCSP(=O)(OCC)SCC(=O)N1CCCCC1C` (stereo not drawn) [Compound 2, O-ethyl-S-n-propyl-S(2-methylpiperidinocarbomoylmethyl)phosphorodithiolate], the “Herbicidal effect, large crabgrass” value in data set [1] (10 g./a.), in [1] (20 g./a.) and in [1] (40 g./a.) was 5 throughout. Also, the “Herbicidal effects, barnyard grass” value in [2] (10 g/a), in data set [2] (20 g/a) and in [2] (40 g/a) was 5 each time. In data set [3], this compound showed an LC50 of 4.6 µg/mL (≈ 13.6 µM). The “Herbicidal effect, common lambsquarter” value in data set [4] (10 g./a.), in [4] (20 g./a.) and in data set [4] (40 g./a.) was 5 in each case. Besides, the “Herbicidal effect, barnyard grass” value in data set [5] (10 g./a.), in data set [5] (20 g./a.) and in data set [5] (40 g./a.) was 5 each time. Moreover, the Mortality (in data set [6]; in the data set on nematode) was 100% each time. The “Herbicidal effects, broad-leaved weeds” value in data set [7] (10 g/a), in data set [7] (20 g/a) and in data set [7] (40 g/a) was 5 throughout. Further, the “Number of insects, tobacco cut worm” value in data set [8] is 0. For the same compound, the Phytotoxicity on rice is 0 in the data set on rice (10 g/a), 1 with rice (20 g/a) and 1 with rice (40 g/a). Further, the “Herbicidal effect, redroot pigweed” value in data set [9] (10 g./a.), in data set [9] (20 g./a.) and in data set [9] (40 g./a.) was 5 each time. The “Herbicidal effect, common purslane” value in data set [10] (10 g./a.), in [10] (20 g./a.) and in [10] (40 g./a.) was 5 each time. For the same compound, the “Herbicidal effect, radish” value is recorded as 0 with radish (10 g./a.), 0 with radish (20 g./a.) and 1 in the data set on radish (40 g./a.). Besides, in data set [11], the “Number of insects, diamond-back moth” value came to 8.
As for `CCOP(=O)(SCC(=O)N1CCCCC1C)SC(C)C` (stereo not drawn) [Compound 3], the “Herbicidal effect, large crabgrass” value in [1] (10 g./a.), in data set [1] (20 g./a.) and in data set [1] (40 g./a.) was 5 in each case. For the same compound, the “Herbicidal effects, barnyard grass” value in data set [2] (10 g/a), in data set [2] (20 g/a) and in data set [2] (40 g/a) was 5 throughout. For the same compound, the LC50 in [3] was found to be 18.5 µg/mL (≈ 54.5 µM). Besides, the “Herbicidal effect, common lambsquarter” value in data set [4] (10 g./a.), in data set [4] (20 g./a.) and in data set [4] (40 g./a.) was 5 each time. Also, the “Herbicidal effect, barnyard grass” value in data set [5] (10 g./a.), in [5] (20 g./a.) and in data set [5] (40 g./a.) was 5 in each case. Moreover, the Mortality in data set [6] is recorded as 83.3%; in the data set with nematode it was 100%. Besides, the “Herbicidal effects, broad-leaved weeds” value in data set [7] (10 g/a), in [7] (20 g/a) and in data set [7] (40 g/a) was 5 in each case. Further, the “Number of insects, tobacco cut worm” value in [8] is 1. Further, the Phytotoxicity on rice in the data set with rice (10 g/a), with rice (20 g/a) and with rice (40 g/a) was 0 throughout. Also, the “Herbicidal effect, redroot pigweed” value worked out at 4 in data set [9] (10 g./a.), 5 in data set [9] (20 g./a.) and 5 in data set [9] (40 g./a.). The “Herbicidal effect, common purslane” value in data set [10] (10 g./a.), in data set [10] (20 g./a.) and in data set [10] (40 g./a.) was 5 throughout. Also, the “Herbicidal effect, radish” value with radish (10 g./a.), in the data set with radish (20 g./a.) and in the data set with radish (40 g./a.) was 0 each time. In addition, the “Number of insects, diamond-back moth” value in data set [11] is 12.
With `COP(=O)(OC)C(O)C(Cl)(Cl)Cl` (stereo not drawn) [Bipterex, reference compound], the “Number of insects, tobacco cut worm” value in data set [8] came to 19. In addition, the “Number of insects, diamond-back moth” value in [11] came to 49.
Turning to `CCOP(=O)(SCC(=O)N1CCCCC1C)SCc1ccc(Cl)cc1` (stereo not drawn) [Compound 49, O-ethyl-S-(4-chlorobenzyl)-S-(2-methylpiperidinocarbamoylmethyl)phosphorodithiolate], in data set [12], the Degree of damage entry is “-”. The “Herbicidal effect, large crabgrass” value in [1] (10 g./a.), in [1] (20 g./a.) and in data set [1] (40 g./a.) was 5 in each case. Moreover, the “Herbicidal effects, barnyard grass” value in data set [2] (10 g/a), in data set [2] (20 g/a) and in [2] (40 g/a) was 5 throughout. Besides, the “Herbicidal effect, common lambsquarter” value in data set [4] (10 g./a.) is 4; in data set [4] (20 g./a.) it was 4; in [4] (40 g./a.), 5. Also, the “Herbicidal effect, barnyard grass” value in data set [5] (10 g./a.), in [5] (20 g./a.) and in data set [5] (40 g./a.) was 5 throughout. Further, the figures for the Mortality (in data set [6]; in the data set with nematode) were 75.0% and 100%, respectively. Also, the “Herbicidal effects, broad-leaved weeds” value in data set [7] (10 g/a), in data set [7] (20 g/a) and in data set [7] (40 g/a) was 5 in each case. Further, the Phytotoxicity on rice is listed as 0 with rice (10 g/a), 0 in the data set on rice (20 g/a) and 1 in the data set on rice (40 g/a). For the same compound, the figures for the “Herbicidal effect, redroot pigweed” value in data set [9] (10 g./a.), in [9] (20 g./a.) and in [9] (40 g./a.) were 3, 4 and 5, respectively. Besides, the “Herbicidal effect, common purslane” value came to 3 in data set [10] (10 g./a.), 4 in [10] (20 g./a.) and 5 in data set [10] (40 g./a.). Besides, the “Herbicidal effect, radish” value in the data set on radish (10 g./a.), with radish (20 g./a.) and in the data set on radish (40 g./a.) was 0 each time.

Values taken from US4015974A, “Amido phosphorothiolates” (priority 1972, dated 1977).
